Results from ChEMBL document CHEMBL4507280 (2021).

Legend:
Settings in all cases: Compound concentration 1000.0 nM
[1] = test system: Tyrosine-protein kinase ABL1 (Homo sapiens), P00519 [H396P]
[2] = test system: Tyrosine-protein kinase ABL1 (Homo sapiens), P00519 [H396P]; remark: listed apart in the source
[3] = test system: Tyrosine-protein kinase ABL1 (Homo sapiens), P00519 [T315I]
[4] = molecular target: Tyrosine-protein kinase ABL1 (Homo sapiens) (UniProt P00519)
[5] = test system: ALK tyrosine kinase receptor (Homo sapiens), Q9UM73 [C1156Y]
[6] = molecular target: Aurora kinase C (Homo sapiens) (UniProt Q9UQB9)
[7] = molecular target: Serine/threonine-protein kinase B-raf (Homo sapiens) (UniProt P15056)
[8] = molecular target: Calcium/calmodulin-dependent protein kinase type 1G (Homo sapiens) (UniProt Q96NX5)
[9] = molecular target: Cyclin-dependent kinase 13 (Homo sapiens) (UniProt Q14004)
[10] = molecular target: Serine/threonine-protein kinase Chk2 (Homo sapiens) (UniProt O96017)
[11] = molecular target: Casein kinase II subunit alpha' (Homo sapiens) (UniProt P19784)
[12] = molecular target: Discoidin domain-containing receptor 2 (Homo sapiens) (UniProt Q16832)
[13] = molecular target: Dual specificity tyrosine-phosphorylation-regulated kinase 2 (Homo sapiens) (UniProt Q92630)
[14] = molecular target: Epidermal growth factor receptor (Homo sapiens) (UniProt P00533)
[15] = test system: Epidermal growth factor receptor (Homo sapiens), P00533 [UNDEFINED MUTATION]
[16] = molecular target: Ephrin type-A receptor 5 (Homo sapiens) (UniProt P54756)
[17] = molecular target: G protein-coupled receptor kinase 4 (Homo sapiens) (UniProt P32298)
[18] = molecular target: Mitogen-activated protein kinase 9 (Homo sapiens) (UniProt P45984)
[19] = molecular target: Mast/stem cell growth factor receptor Kit (Homo sapiens) (UniProt P10721)
[20] = molecular target: LIM domain kinase 2 (Homo sapiens) (UniProt P53671)
[21] = molecular target: Serine/threonine-protein kinase 26 (Homo sapiens) (UniProt Q9P289)
[22] = molecular target: Myosin light chain kinase 2, skeletal/cardiac muscle (Homo sapiens) (UniProt Q9H1R3)
[23] = molecular target: Serine/threonine-protein kinase Nek1 (Homo sapiens) (UniProt Q96PY6)
[24] = molecular target: Serine/threonine-protein kinase Nek2 (Homo sapiens) (UniProt P51955)
[25] = molecular target: Serine/threonine-protein kinase Nek4 (Homo sapiens) (UniProt P51957)
[26] = molecular target: Serine/threonine-protein kinase Nek5 (Homo sapiens) (UniProt Q6P3R8)
[27] = molecular target: Phosphatidylinositol 4,5-bisphosphate 3-kinase catalytic subunit alpha isoform (Homo sapiens) (UniProt P42336)
[28] = molecular target: Phosphatidylinositol 4-kinase beta (Homo sapiens) (UniProt Q9UBF8)
[29] = molecular target: Membrane-associated tyrosine- and threonine-specific cdc2-inhibitory kinase (Homo sapiens) (UniProt Q99640)
[30] = molecular target: Serine/threonine-protein kinase D3 (Homo sapiens) (UniProt O94806)
[31] = test system: Proto-oncogene tyrosine-protein kinase receptor Ret (Homo sapiens), P07949 [M918T]
[32] = molecular target: Receptor-interacting serine/threonine-protein kinase 4 (Homo sapiens) (UniProt P57078)
[33] = molecular target: Rho-associated protein kinase 2 (Homo sapiens) (UniProt O75116)
[34] = molecular target: Ribosomal protein S6 kinase alpha-5 (Homo sapiens) (UniProt O75582)
[35] = molecular target: Ribosomal protein S6 kinase alpha-1 (Homo sapiens) (UniProt Q15418)
[36] = molecular target: Ribosomal protein S6 kinase beta-1 (Homo sapiens) (UniProt P23443)
[37] = molecular target: Serine/threonine-protein kinase SBK1 (Homo sapiens) (UniProt Q52WX2)
[38] = molecular target: Serine/threonine-protein kinase 16 (Homo sapiens) (UniProt O75716)
[39] = molecular target: Serine/threonine-protein kinase 35 (Homo sapiens) (UniProt Q8TDR2)
[40] = molecular target: STE20/SPS1-related proline-alanine-rich protein kinase (Homo sapiens) (UniProt Q9UEW8)
[41] = molecular target: Serine/threonine-protein kinase tousled-like 2 (Homo sapiens) (UniProt Q86UE8)
[42] = molecular target: Non-receptor tyrosine-protein kinase TNK1 (Homo sapiens) (UniProt Q13470)
[43] = molecular target: Serine/threonine-protein kinase ULK3 (Homo sapiens) (UniProt Q6PHR2)
[44] = molecular target: Wee1-like protein kinase (Homo sapiens) (UniProt P30291)
[45] = molecular target: Serine/threonine-protein kinase WNK3 (Homo sapiens) (UniProt Q9BYP7)
Chain of Serine/threonine-protein kinase WNK3 (Homo sapiens) (Q9BYP7 whole entry): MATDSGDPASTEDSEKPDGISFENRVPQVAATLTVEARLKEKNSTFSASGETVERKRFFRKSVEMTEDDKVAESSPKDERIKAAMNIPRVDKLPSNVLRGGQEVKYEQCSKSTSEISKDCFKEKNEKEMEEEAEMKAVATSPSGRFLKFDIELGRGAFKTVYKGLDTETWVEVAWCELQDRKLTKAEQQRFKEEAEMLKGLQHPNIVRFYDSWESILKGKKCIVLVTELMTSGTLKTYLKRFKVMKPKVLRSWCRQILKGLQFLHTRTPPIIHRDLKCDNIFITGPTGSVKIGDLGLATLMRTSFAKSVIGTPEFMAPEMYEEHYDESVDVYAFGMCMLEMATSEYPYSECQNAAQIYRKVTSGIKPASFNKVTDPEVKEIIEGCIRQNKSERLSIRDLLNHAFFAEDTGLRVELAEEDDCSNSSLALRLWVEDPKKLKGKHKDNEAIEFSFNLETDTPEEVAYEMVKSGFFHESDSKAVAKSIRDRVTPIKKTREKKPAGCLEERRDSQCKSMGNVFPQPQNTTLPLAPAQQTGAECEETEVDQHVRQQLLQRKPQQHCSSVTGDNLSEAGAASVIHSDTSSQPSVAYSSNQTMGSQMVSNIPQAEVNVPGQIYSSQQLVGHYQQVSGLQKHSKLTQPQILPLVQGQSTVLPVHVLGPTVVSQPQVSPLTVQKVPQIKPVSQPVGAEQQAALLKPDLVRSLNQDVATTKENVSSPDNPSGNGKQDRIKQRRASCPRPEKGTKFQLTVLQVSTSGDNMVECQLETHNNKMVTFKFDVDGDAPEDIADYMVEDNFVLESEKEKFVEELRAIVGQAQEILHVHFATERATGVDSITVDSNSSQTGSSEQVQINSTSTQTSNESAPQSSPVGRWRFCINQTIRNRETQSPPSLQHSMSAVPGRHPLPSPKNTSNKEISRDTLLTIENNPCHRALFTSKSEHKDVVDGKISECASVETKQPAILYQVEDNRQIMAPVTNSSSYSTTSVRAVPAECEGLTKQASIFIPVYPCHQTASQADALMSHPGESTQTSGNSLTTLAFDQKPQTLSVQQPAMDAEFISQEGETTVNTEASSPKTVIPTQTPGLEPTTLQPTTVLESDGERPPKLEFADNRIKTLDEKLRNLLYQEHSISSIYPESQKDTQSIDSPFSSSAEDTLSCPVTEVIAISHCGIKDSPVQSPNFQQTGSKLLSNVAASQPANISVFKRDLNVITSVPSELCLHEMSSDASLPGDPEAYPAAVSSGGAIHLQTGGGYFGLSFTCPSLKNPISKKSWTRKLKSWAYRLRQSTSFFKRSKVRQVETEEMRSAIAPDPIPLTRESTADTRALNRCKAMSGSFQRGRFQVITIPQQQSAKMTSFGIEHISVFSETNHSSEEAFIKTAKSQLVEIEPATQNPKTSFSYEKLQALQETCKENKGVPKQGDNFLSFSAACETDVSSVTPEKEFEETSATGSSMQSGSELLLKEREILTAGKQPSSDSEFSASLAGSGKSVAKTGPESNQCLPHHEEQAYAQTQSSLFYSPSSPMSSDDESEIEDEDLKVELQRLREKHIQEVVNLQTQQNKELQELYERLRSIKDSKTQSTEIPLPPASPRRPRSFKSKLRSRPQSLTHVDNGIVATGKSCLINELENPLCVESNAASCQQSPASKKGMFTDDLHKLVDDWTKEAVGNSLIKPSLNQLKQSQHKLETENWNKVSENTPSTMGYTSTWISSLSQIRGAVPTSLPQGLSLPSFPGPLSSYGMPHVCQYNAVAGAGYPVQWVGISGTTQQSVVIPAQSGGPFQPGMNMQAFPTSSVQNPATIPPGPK

Chain of Serine/threonine-protein kinase D3 (Homo sapiens) (O94806 whole entry): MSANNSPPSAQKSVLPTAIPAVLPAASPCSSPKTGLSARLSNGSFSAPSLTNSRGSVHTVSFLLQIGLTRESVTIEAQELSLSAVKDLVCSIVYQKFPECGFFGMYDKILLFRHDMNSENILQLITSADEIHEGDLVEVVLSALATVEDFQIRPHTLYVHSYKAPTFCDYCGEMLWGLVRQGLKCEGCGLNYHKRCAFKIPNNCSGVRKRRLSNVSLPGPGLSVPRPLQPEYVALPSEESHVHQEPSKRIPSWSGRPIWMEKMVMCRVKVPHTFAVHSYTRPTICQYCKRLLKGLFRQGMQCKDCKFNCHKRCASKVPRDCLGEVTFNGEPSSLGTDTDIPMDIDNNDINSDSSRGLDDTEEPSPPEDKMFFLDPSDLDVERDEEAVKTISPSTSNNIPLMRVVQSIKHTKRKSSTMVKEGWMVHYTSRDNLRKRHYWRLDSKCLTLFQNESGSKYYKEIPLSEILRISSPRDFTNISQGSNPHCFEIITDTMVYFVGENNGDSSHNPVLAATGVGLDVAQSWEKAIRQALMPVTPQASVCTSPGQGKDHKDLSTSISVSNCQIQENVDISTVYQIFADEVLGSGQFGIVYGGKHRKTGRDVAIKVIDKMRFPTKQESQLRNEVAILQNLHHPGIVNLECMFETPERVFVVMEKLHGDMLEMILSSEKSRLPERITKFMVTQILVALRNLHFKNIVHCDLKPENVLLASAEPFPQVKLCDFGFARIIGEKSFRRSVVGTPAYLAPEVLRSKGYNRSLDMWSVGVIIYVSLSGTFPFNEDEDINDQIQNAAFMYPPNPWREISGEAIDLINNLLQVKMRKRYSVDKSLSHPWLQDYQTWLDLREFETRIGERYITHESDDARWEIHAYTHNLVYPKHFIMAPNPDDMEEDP
Chain of Aurora kinase C (Homo sapiens) (Q9UQB9 whole entry): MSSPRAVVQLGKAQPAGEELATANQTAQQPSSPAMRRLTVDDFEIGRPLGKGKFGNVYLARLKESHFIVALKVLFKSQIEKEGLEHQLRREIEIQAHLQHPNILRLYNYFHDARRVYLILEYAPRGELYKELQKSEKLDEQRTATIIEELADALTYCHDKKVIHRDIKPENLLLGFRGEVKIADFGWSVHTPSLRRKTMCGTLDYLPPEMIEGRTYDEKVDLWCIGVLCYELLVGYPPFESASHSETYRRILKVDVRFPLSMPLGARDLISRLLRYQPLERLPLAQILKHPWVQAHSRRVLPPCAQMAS
Chain of Proto-oncogene tyrosine-protein kinase receptor Ret (Homo sapiens), P07949 [M918T] (P07949 whole entry M918T): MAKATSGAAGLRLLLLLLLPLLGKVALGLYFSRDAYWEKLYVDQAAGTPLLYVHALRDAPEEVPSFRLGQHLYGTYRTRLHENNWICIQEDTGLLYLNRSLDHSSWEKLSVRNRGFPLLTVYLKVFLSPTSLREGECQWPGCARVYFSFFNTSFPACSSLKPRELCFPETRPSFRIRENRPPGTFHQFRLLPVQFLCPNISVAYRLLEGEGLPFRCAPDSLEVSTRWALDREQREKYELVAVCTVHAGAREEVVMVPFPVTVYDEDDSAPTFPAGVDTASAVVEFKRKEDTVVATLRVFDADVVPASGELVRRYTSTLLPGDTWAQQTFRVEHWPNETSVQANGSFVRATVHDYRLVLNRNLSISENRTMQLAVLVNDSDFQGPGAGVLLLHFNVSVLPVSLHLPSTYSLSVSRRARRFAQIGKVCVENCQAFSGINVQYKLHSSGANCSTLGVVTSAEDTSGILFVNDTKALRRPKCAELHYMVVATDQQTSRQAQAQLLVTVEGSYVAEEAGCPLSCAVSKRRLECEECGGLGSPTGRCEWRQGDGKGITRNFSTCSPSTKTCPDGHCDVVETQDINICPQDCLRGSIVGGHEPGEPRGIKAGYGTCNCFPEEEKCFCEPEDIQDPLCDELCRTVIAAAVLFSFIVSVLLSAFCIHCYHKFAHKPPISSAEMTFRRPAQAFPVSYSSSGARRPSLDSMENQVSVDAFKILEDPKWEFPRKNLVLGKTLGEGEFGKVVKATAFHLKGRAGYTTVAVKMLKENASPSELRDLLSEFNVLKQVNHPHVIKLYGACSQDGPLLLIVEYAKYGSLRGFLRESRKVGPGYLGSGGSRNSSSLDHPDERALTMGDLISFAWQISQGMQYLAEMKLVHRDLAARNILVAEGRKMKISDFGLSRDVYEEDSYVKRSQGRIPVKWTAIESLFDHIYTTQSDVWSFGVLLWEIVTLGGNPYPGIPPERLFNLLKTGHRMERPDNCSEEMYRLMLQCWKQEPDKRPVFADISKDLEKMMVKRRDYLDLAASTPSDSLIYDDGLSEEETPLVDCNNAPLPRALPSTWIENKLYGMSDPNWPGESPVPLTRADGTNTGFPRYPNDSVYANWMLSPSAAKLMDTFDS
Chain of Discoidin domain-containing receptor 2 (Homo sapiens) (Q16832 whole entry, the tested form may be a part): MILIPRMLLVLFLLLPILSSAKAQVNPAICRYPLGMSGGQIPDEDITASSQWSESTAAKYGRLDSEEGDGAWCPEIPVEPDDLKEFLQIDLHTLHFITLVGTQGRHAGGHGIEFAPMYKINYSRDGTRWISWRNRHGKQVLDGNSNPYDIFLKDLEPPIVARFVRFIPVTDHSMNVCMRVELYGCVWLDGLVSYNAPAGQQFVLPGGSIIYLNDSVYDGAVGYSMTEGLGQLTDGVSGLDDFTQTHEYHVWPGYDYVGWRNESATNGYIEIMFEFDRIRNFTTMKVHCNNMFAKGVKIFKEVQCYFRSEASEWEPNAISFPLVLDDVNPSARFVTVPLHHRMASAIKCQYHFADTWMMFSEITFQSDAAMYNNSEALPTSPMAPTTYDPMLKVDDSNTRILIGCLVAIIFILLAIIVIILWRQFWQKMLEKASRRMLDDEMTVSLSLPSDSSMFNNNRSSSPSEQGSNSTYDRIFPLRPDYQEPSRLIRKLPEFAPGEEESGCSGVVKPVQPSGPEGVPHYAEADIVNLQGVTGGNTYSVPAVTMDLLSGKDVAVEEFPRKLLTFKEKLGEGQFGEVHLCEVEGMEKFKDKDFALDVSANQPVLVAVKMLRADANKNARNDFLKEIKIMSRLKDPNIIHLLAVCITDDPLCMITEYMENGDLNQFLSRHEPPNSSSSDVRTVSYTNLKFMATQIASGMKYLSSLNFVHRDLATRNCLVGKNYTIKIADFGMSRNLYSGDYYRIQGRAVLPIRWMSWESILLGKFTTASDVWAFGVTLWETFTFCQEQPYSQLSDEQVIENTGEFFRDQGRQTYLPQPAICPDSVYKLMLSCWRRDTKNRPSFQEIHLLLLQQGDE

Structure (SMILES): CCC(=O)N[C@H]1CC[C@@H](C(=O)N(C)c2ccc(-c3nc4ccccc4o3)cc2)C1 [BI 99179]
- residual activity [1]: 100%
- residual activity [2]: 88%
- residual activity [3]: 89%
- residual activity [4]: 72%
- residual activity [5]: 100%
- residual activity [6]: 100%
- residual activity [7]: 100%
- residual activity [8]: 100%
- residual activity [9]: 100%
- residual activity [10]: 100%
- residual activity [11]: 100%
- residual activity [12]: 100%
- residual activity [13]: 87%
- residual activity [14]: 100%
- residual activity [15]: 100%
- residual activity [16]: 78%
- residual activity [17]: 100%
- residual activity [18]: 79%
- residual activity [19]: 94%
- residual activity [20]: 100%
- residual activity [21]: 76%
- residual activity [22]: 85%
- residual activity [23]: 100%
- residual activity [24]: 100%
- residual activity [25]: 99%
- residual activity [26]: 100%
- residual activity [27]: 94%
- residual activity [28]: 77%
- residual activity [29]: 99%
- residual activity [30]: 100%
- residual activity [31]: 100%
- residual activity [32]: 50%
- residual activity [33]: 100%
- residual activity [34]: 68%
- residual activity [35]: 99%
- residual activity [36]: 99%
- residual activity [37]: 94%
- residual activity [38]: 100%
- residual activity [39]: 88%
- residual activity [40]: 100%
- residual activity [41]: 100%
- residual activity [42]: 100%
- residual activity [43]: 67%
- residual activity [44]: 100%
- residual activity [45]: 92%

Structure (SMILES): CCC(=O)N[C@@H]1CC[C@H](C(=O)N(C)c2ccc(-c3nc4ccccc4o3)cc2)C1 [BI 99990]
- residual activity [1]: 46%
- residual activity [2]: 92%
- residual activity [3]: 87%
- residual activity [4]: 96%
- residual activity [5]: 100%
- residual activity [6]: 100%
- residual activity [7]: 96%
- residual activity [8]: 100%
- residual activity [9]: 100%
- residual activity [10]: 100%
- residual activity [11]: 100%
- residual activity [12]: 92%
- residual activity [13]: 100%
- residual activity [14]: 100%
- residual activity [15]: 100%
- residual activity [16]: 100%
- residual activity [17]: 100%
- residual activity [18]: 98%
- residual activity [19]: 100%
- residual activity [20]: 100%
- residual activity [21]: 77%
- residual activity [22]: 79%
- residual activity [23]: 100%
- residual activity [24]: 100%
- residual activity [25]: 95%
- residual activity [26]: 100%
- residual activity [27]: 88%
- residual activity [28]: 100%
- residual activity [29]: 100%
- residual activity [30]: 100%
- residual activity [31]: 100%
- residual activity [32]: 72%
- residual activity [33]: 100%
- residual activity [34]: 97%
- residual activity [35]: 100%
- residual activity [36]: 93%
- residual activity [37]: 100%
- residual activity [38]: 100%
- residual activity [39]: 100%
- residual activity [40]: 73%
- residual activity [41]: 100%
- residual activity [42]: 100%
- residual activity [43]: 66%
- residual activity [44]: 99%
- residual activity [45]: 100%
